# Test results published in paper PMC7392643, “Antibiotic fidaxomicin is an RdRp inhibitor as a potential new therapeutic agent against Zika virus” (BMC Medicine, 2020).
# “Also recorded” adds a separate entry of the source.
# Legend:
# [1] = system: ZIKV; assay: Oral administration test in ZIKV-infected mice; type: in vivo; conditions: 225 mg/kg, vs vehicle
# Description: Fig. S4. Oral administration test for the antiviral efficacy of fidaxomicin in vivo. a Schematic illustration of the animal experimental design for the oral administration test (n=10 animals per group). b Kaplan–Meier survival of ZIKV-infected mice treated with fidaxomicin at the dosage of 225mg/kg. c Body weight changes were recorded daily for ZIKV-infected mice treated with fidaxomicin at the dosage of 225mg/kg or with control delivery vehicle. d Tissue viral loads in the brains of ZIKV-infected mice were determined by RT-qPCR (P value, compared to vehicle control).
# [2] = system: ZIKV (ZG-01 strain); assay: Antiviral efficacy in ZIKV-infected Ifnar1-/- mice, i.v. dosing; type: in vivo; conditions: for Median survival: vehicle 8.5 days
# Description: RNA from cell supernatants or from mouse tissues (brain and testis) was prepared with RaPure Viral RNA/DNA Kit (Magen, Guangzhou, China) according to the manufacturer’s instructions. The first-strand cDNA was synthesized using random hexamer primers with the Revert Aid Reverse Transcription Kit (Thermo Fisher Scientific, Rockford, IL, USA), and real-time PCR was carried out by using LightCycler® 480 Probes Master (2× reaction mix buffer including DNA polymerase) (no. 04887301001, Roche, Basel, Switzerland). Virus concentration was determined by interpolation onto an internal standard curve made up of a 7-point dilution series of in vitro transcribed RNA and tissue weight to quantify ZIKV RNA as copies/gram tissue. Primer sets used for real-time PCR are shown in Additional file 1: Table S1. Reverse transcription and real-time PCR were performed for at least three times.
# For ZIKV infection and antiviral treatment studies, mice were randomly assigned to groups (n = 12–13/group). Male and female 5-week-old Ifnar1^−/− mice were infected subcutaneously (s.c.) with ZIKV (ZG-01 strain, 2 × 10^4 PFU for each mouse) 1 h before administration of treatment agents. Compounds were prepared in sterile pharmaceutical dosage form of 1:10:89 (DMSO : Tween80 : 5% glucose solution) less than 4 h prior to administration in mice. Fidaxomicin was administered by tail vein injection daily at 20 or 10 mg/kg for 7 days. The identity of the treatment groups was blinded to the researcher administering treatments. Survival, disease signs, and the weight of each mouse were recorded on day 0 and then every other day from 1 to 15 days post-infection (dpi). Mice were humanely euthanized if they could no longer right themselves or were unresponsive to stimuli. Tissues, including the brains and testes, were collected from each animal. Part of each tissue was fixed in 4% paraformaldehyde or in PBS for at least 24 h prior to paraffin embedding and sectioning for use in immunohistochemistry analysis, immunofluorescence analysis, or analysis of viral RNA. Total RNA was extracted from tissues, and ZIKV RNA was quantified as described above.
# Immunofluorescence assay was carried out on paraffin-embedded mouse brain and testis tissue slides, incubated with an anti-ZIKV E antibody (1:500, BioFront Technologies, Tallahassee, FL, USA). The secondary antibody was Rhodamine Red™-X (RRX) AffiniPure F (ab')2 Fragment Goat Anti-Mouse IgG (1:500, AB_2338781, Jackson ImmunoResearch Laboratories, Inc. West Grove, PA, USA), and 4-,6-diamidino-2-phenylindole (DAPI, 1:1000, Sangon Biotech, Shanghai, China) was used to stain the nuclei. The immunofluorescent images were taken with an inverted microscope (Carl Zeiss, Oberkochen, Germany). For histologic staining, the fixed tissues were dehydrated, embedded in paraffin, sectioned, rehydrated, and stained with hematoxylin and eosin (H/E). The H/E-stained sections were evaluated for viral-induced neuropathology. […] histological examination was performed by a board-certified veterinary pathologist. Each slide was auto scanned by Axio Scan Z1 (Carl Zeiss, Oberkochen, Germany).
structure (smiles),measurement,setting,value
CCc1c(Cl)c(O)c(Cl)c(O)c1C(=O)O[C@H]1[C@H](O)[C@H](OC)[C@H](OC/C2=C\C=C\C[C@H](O)/C(C)=C/[C@H](CC)[C@@H](O[C@@H]3OC(C)(C)[C@@H](OC(=O)C(C)C)[C@H](O)[C@@H]3O)/C(C)=C/C(C)=C/C[C@@H]([C@@H](C)O)OC2=O)O[C@@H]1C [Fidaxomicin],outcome of ZIKV-infected mice after oral administration,[1],did not improve the outcome; also recorded: only weakly antagonizes
same,Median survival,[2]; 10 mg/kg i.v. daily for 7 days,14 days
same,Median survival,[2]; 20 mg/kg i.v. daily for 7 days,over 15 days
same,body weight loss,"[2]; 20 mg/kg/day, between 8 and 15 dpi, vs vehicle",obvious protection from weight loss
same,ZIKV load in the brains and testes (immunostaining of ZIKV E),[2]; 10 and 20 mg/kg vs vehicle,reduced
same,viral RNA levels in the brain and testis,"[2]; 15 dpi, 10 and 20 mg/kg groups, RT-qPCR",significantly decreased
same,neuronal necrosis in hippocampal pyramidal cells,[2]; H/E staining,remarkably reduced
same,pathologic damages in the cerebra,"[2]; both treatment groups vs vehicle, H/E staining",remarkably alleviated
same,"number of neurological signs (paralysis, hunching)","[2]; both treatment groups, dose-dependent",progressive decrease
same,perivascular cuffing of vessels in cerebra,"[2]; both treatment groups, p = 0.0090 and p < 0.0001",significant decrease
same,mice protected from mortality,[2]; high-dose group (20 mg/kg i.v. daily for 7 days),nine out of 13
same,effective therapeutic doses against ZIKV,"[2]; mice, i.v.",10 to 20 mg/kg
same,ZIKV E protein in brain and testis tissues (western blotting),[2]; vs vehicle control,significant suppressive effect
